This note sets out measurements from PMC11365428 (The Journal of Biological Chemistry, 2024).

Non-standard residues stand in square brackets, D forms with d. Residues, ends and D or L forms follow the SMILES beside them. pGlu = O=C1CC[C@@H](C(=O)O)N1

Assay [1] has as its system putative neuropeptide FF receptor (apNPFFR). Description: IP1 accumulation assay, CHO-K1 cells transiently expressing putative neuropeptide FF receptor. The assay is classed as cell-based, Aplysia californica. The conditions noted are these: 10^-5 M compared with 10^-10 M (control); n = 3; no Gαq cotransfection. The protocol: To express putative Aplysia receptors transiently in CHO-K1 cells, the cDNAs were subcloned into the pcDNA3.1(+) or pcDNA3.1(+)-FLAG (for ELISA experiments only, see “Cell surface expression analysis by ELISA” section) expression vector. On the day before transfection, the CHO-K1 cells were passaged into 60 mm diameter tissue culture–treated dishes, and the transfection experiments were performed when the cells were grown to 70 to 90% confluence. CHO-K1 cells were transfected with the cDNA plasmid constructs using Turbofect Transfection reagent (Thermo Fisher Scientific, R0531), following the manufacturer’s instructions. In brief, 4 μg of the putative receptor plasmids [in pcDNA3.1(+) or pcDNA3.1(+)-FLAG] were mixed with 400 μl of Opti-MEM (Gibco, 11058021), followed by the addition of 15 μl of TurboFect Transfection reagent and incubated at room temperature for 15 min. The DNA/TurboFect mixture dropwise was then added to the dish, and the cells were incubated at 37 °C in a humidified incubator containing 5% CO2 overnight.
The next day, transfected cells were trypsinized and reseeded in an opaque white 96-well half-area (Corning, 3688) or 384-well tissue culture–treated plates (Corning, 3570) at a density of 20,000 cells/well in F-12K and 10% FBS and incubated at 37 °C in a humidified incubator containing 5% CO2 overnight. On the third day, the activation of the putative receptors was detected by monitoring intracellular IP1 concentration using an IP-One Gq kit (Cisbio, 62IPAPEB) in Tecan Spark. Except for using 0.5x reagent, all other procedures were performed following the manufacturer’s instructions. IP1 accumulation assay measures the accumulation of IP1, which is hydrolyzed from the second messenger, and inositol triphosphate. Inositol triphosphate is generated by the Gαq pathway when a GPCR is activated by an appropriate ligand.

A further assay concerns the target apTKRPR-A 5A (Aplysia californica, UniProt A0AAU7SSZ1, S377A/S394A/T379A/T387A/T393A). Description: IP1 accumulation assay, Ser/Thr-to-Ala mutant apTKRPR-A 5A. The assay is classed as cell-based. The protocol: To express putative Aplysia receptors transiently in CHO-K1 cells, the cDNAs were subcloned into the pcDNA3.1(+) or pcDNA3.1(+)-FLAG (for ELISA experiments only, see “Cell surface expression analysis by ELISA” section) expression vector. On the day before transfection, the CHO-K1 cells were passaged into 60 mm diameter tissue culture–treated dishes, and the transfection experiments were performed when the cells were grown to 70 to 90% confluence. CHO-K1 cells were transfected with the cDNA plasmid constructs using Turbofect Transfection reagent (Thermo Fisher Scientific, R0531), following the manufacturer’s instructions. In brief, 4 μg of the putative receptor plasmids [in pcDNA3.1(+) or pcDNA3.1(+)-FLAG] were mixed with 400 μl of Opti-MEM (Gibco, 11058021), followed by the addition of 15 μl of TurboFect Transfection reagent and incubated at room temperature for 15 min. […]
The next day, transfected cells were trypsinized and reseeded in an opaque white 96-well half-area (Corning, 3688) or 384-well tissue culture–treated plates (Corning, 3570) at a density of 20,000 cells/well in F-12K and 10% FBS and incubated at 37 °C in a humidified incubator containing 5% CO2 overnight. On the third day, the activation of the putative receptors was detected by monitoring intracellular IP1 concentration using an IP-One Gq kit (Cisbio, 62IPAPEB) in Tecan Spark. […]

For another assay, the target named is apTKRPR-B T391 (Aplysia californica, UniProt A0AAU7STS1, DEL392-447). In words: Cell surface expression by ELISA after ligand exposure, truncated apTKRPR-B T391. The assay is classed as cell-based. As to conditions: 10 µM, 60 min, n = 5. The protocol:
Cell surface expression determination of apTKRPRs and mutant receptors, all with FLAG tags, was performed using a procedure modified from previous work ([64], [122], [123], [124]). Specifically, CHO-K1 cells were cultured in F-12K medium (Gibco, 21127-022) with 10% FBS (Genial, G11-70500) at 37 °C in a humidified incubator containing 5% CO2. When the cells were grown to 70 to 90% confluence, transfection experiments were performed (see “Cell culture and transfection” section). After 24 h, transfected cells were plated in 96-well white clear-bottom cell culture plates (Corning, 3610) at a density of 20,000 cells in 100 μl per well and incubated overnight. The following day, culture media was aspirated and cells were washed twice with 200 μl of 1× PBS (Procell, PB180327). Then, 100 μl of 1× PBS containing 5% (w/v) BSA was added to each well and incubated at room temperature. After 30 min, 100 μl of 1:10,000 anti-FLAG M2-horseradish peroxidase conjugate (Sigma-Aldrich, Cat A8592) was added to each well and incubated for 30 min at 37 °C. Cells were washed twice with 200 μl of 1× PBS and then incubated with 200 μl of TMB Chromogen Solution (Sangon Biotech, E661007) for 30 min at 37 °C in the dark. Finally, 50 μl of ELISA Stopping Solution (Sangon Biotech, E661006) was added to each well to stop the reaction. The absorbance at 450 nm was measured using a Tecan Spark microplate reader. […]
For orientation: In an ELISA, binding on a coated surface is turned into a signal by an enzyme label.

As usually defined, the EC50 is the concentration giving half of the maximal effect. Read a high EC50 as weaker potency.

Sequence of apTKRPR-A 5A (A0AAU7SSZ1 entry or part of it S377A/T379A/T387A/T393A/S394A): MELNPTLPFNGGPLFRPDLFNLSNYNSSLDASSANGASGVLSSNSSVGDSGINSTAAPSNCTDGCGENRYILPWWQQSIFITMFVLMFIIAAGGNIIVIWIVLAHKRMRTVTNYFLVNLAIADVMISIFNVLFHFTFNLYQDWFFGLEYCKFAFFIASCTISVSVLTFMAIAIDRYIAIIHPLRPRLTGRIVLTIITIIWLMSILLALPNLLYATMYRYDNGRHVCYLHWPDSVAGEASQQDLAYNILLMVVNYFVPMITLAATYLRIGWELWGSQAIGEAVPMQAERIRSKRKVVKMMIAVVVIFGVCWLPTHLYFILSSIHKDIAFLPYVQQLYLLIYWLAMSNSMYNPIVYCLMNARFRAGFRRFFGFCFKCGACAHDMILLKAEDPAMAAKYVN
Sequence of apTKRPR-B T391 (A0AAU7STS1 entry or part of it, stated change not applied): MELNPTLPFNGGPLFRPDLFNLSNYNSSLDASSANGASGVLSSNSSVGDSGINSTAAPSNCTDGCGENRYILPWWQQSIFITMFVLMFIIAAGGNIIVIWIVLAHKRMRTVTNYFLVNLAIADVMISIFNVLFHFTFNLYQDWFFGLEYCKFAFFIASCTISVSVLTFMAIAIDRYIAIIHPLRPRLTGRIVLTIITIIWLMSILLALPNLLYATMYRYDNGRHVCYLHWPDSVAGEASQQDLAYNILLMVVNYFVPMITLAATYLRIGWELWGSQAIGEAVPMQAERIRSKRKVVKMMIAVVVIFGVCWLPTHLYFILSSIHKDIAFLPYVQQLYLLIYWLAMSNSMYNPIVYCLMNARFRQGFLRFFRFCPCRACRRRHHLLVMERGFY

Take `CC(C)C[C@H](NC(=O)[C@H](Cc1c[nH]cn1)NC(=O)[C@@H]1CCCN1C(=O)[C@@H]1CCC(=O)N1)C(=O)NCC(=O)N[C@@H](Cc1ccccc1)C(=O)N[C@@H](Cc1c[nH]cn1)C(=O)NCC(=O)N[C@@H](CO)C(=O)N[C@@H](CCCNC(=N)N)C(N)=O` [apTKRP-2b] ([pGlu]PHLGFHGSR-NH2): the “IP1 response of putative apNPFFR in screening” value in assay [1] is recorded as “did not respond”. Moreover, on apTKRPR-A 5A, the EC50 was 58.9 nM. Moreover, on apTKRPR-B T391, the “cell surface receptor expression of T391 after agonist exposure” value is reported as “did not change significantly”.
